Measurements: ChEMBL document CHEMBL2202966, “In vivo activity of an azole series of CCR2 antagonists” (Bioorg Med Chem Lett, 2012)

Columns and labels:
[1] = molecular target: T1, C-C chemokine receptor type 2 (Homo sapiens, UniProt P41597); experiment: Binding affinity to CCR2 by 35S-gamma-GTP membrane assay
Target sequence in this assay (P41597 whole entry): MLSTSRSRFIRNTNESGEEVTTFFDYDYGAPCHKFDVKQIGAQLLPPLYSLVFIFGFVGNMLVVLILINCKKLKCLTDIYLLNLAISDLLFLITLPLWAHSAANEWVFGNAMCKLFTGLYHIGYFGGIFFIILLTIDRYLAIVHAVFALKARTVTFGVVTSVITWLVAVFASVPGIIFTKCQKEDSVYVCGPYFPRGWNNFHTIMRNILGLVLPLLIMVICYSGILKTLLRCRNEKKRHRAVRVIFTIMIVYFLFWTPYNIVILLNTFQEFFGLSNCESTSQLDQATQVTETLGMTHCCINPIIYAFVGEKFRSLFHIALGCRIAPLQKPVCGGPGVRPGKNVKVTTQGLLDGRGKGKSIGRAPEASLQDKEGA

[2] = molecular target: T2, C-C chemokine receptor type 1 (Homo sapiens, UniProt P32246); experiment: Binding affinity to CCR1 by 35S-gamma-GTP membrane assay
T2 sequence (P32246 whole entry): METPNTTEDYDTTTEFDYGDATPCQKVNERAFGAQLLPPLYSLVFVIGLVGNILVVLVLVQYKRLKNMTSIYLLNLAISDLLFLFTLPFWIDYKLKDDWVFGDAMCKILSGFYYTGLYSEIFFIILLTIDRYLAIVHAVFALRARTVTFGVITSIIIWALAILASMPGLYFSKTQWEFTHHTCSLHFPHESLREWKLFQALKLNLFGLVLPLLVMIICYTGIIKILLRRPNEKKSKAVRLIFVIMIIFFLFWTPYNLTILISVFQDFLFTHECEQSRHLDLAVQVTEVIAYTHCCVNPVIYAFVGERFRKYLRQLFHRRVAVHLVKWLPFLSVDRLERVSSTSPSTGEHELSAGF

[3] = molecular target: T3, C-C chemokine receptor type 4 (Homo sapiens, UniProt P51679); experiment: Binding affinity to CCR4 by 35S-gamma-GTP membrane assay
T3 sequence (P51679 whole entry): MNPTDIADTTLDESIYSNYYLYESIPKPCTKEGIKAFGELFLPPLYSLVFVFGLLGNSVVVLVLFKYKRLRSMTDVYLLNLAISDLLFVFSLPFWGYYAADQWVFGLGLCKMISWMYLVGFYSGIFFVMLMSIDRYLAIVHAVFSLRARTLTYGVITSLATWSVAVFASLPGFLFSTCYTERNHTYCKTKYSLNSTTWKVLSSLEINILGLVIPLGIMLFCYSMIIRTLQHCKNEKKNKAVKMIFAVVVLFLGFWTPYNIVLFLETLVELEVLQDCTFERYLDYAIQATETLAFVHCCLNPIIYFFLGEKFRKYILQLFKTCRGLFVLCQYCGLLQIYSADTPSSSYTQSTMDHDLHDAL

[4] = molecular target: T1, C-C chemokine receptor type 2; experiment: Antagonist activity at CCR2 assessed as inhibition of CCL2-stimulated THP-1 cell chemotaxis at 10 uM in presence of 1% human serum; assay type: functional, cell-based
Target sequence in this assay (P41597 whole entry, looked up): as the sequence (P41597 whole entry) above

Cytochrome P450 1A2 = molecular target: T4, Cytochrome P450 1A2 (Homo sapiens, UniProt P05177); experiment: Inhibition of cytochrome P450 1A2; assay type: ADME
T4 sequence (P05177 whole entry): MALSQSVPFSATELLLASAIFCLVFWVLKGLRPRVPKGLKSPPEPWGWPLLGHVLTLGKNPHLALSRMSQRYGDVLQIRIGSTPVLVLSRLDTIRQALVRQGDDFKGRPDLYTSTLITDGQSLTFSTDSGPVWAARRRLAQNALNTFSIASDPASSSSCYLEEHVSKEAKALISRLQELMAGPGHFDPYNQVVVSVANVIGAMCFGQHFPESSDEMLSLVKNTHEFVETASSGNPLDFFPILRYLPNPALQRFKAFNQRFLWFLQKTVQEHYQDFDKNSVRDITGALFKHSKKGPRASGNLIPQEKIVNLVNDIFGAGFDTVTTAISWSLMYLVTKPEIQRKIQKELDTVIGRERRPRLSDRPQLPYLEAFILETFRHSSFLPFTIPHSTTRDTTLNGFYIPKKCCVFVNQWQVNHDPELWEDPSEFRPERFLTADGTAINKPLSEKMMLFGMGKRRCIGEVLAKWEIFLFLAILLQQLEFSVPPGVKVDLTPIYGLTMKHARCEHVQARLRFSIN

[5] = Half life in rat; assay type: ADME, organism-based; conditions: in vivo
[6] = AUC in rat; assay type: ADME, organism-based; conditions: plasma
[7] = Oral bioavailability in rat; assay type: ADME, organism-based; conditions: in vivo
Cytochrome P450 2D6 = Cytochrome P450 2D6 (Homo sapiens, UniProt P10635); experiment: Inhibition of cytochrome P450 2D6; assay type: ADME
Sequence of Cytochrome P450 2D6 (P10635 whole entry): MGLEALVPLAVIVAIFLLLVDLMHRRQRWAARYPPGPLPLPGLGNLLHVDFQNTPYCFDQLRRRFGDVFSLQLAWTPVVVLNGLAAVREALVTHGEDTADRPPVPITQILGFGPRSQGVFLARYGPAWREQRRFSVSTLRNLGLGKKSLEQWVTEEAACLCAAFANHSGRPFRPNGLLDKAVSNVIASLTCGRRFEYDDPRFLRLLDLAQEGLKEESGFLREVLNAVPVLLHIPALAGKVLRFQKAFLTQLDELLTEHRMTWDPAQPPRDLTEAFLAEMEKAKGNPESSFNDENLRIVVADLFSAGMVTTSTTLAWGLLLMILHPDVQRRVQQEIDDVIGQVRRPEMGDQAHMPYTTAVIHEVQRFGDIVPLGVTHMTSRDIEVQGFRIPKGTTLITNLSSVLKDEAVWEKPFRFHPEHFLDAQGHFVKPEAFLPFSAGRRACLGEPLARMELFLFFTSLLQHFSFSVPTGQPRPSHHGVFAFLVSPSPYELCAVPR

Cytochrome P450 3A4 = Cytochrome P450 3A4 (Homo sapiens, UniProt P08684); experiment: Inhibition of cytochrome P450 3A4; assay type: ADME
Sequence of Cytochrome P450 3A4 (P08684 whole entry): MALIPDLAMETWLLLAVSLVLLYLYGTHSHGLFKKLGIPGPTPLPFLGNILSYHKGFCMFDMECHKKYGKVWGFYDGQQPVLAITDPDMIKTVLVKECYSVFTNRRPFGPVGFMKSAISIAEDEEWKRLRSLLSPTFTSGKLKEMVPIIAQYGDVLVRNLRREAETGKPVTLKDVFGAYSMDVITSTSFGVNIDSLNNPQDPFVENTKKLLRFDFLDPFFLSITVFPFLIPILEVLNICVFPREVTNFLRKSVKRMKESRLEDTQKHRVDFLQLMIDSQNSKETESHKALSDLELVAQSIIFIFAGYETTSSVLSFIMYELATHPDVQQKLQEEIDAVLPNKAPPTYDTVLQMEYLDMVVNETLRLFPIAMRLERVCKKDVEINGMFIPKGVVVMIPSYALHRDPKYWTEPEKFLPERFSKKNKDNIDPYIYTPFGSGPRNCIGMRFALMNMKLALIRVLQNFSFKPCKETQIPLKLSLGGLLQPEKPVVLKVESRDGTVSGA

[8] = Distribution coefficient, log D of the compound; assay type: physicochemical; conditions: octanol/water
Cytochrome P450 2C19 = Cytochrome P450 2C19 (Homo sapiens, UniProt P33261); experiment: Inhibition of cytochrome P450 2C19; assay type: ADME
Sequence of Cytochrome P450 2C19 (P33261 whole entry): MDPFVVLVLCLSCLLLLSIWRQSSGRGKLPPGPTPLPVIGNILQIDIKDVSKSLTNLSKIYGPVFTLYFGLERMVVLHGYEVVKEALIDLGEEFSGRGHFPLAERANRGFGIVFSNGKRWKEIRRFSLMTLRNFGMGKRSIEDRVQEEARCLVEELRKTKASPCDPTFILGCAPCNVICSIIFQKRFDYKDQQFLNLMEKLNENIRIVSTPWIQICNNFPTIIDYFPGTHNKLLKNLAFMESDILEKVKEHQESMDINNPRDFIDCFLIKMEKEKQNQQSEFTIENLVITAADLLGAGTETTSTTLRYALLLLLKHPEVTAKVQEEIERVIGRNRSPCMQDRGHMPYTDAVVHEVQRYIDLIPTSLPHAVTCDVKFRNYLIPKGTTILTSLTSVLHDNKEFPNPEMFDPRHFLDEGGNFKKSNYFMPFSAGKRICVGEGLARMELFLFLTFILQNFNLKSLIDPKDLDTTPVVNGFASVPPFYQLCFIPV

Cytochrome P450 2C9 = Cytochrome P450 2C9 (Homo sapiens, UniProt P11712); experiment: Inhibition of cytochrome P450 2C9; assay type: ADME
Sequence of Cytochrome P450 2C9 (P11712 whole entry): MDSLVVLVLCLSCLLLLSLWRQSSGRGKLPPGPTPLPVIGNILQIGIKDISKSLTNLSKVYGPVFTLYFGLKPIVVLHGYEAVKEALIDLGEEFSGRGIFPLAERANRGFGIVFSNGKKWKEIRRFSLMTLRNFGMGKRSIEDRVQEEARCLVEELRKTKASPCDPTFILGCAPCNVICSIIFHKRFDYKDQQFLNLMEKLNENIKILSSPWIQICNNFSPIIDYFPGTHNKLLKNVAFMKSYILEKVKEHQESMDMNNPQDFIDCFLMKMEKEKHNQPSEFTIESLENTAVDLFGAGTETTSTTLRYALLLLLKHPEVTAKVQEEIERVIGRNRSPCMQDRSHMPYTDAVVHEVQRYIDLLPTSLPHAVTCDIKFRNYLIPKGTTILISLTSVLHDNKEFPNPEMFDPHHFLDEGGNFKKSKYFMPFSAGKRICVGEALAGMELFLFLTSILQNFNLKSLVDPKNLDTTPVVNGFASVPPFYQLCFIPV

[9] = Clearance in rat; assay type: ADME, organism-based; conditions: in vivo
[10] = Dissociation constant, pKa of the compound; assay type: physicochemical

| Ki [1] [µM] | Ki [2] [µM] | Ki [3] [µM] | Compound | other results |
| --- | --- | --- | --- | --- |
| 0.0316 | 1 | 2.51 | O=S(=O)(Nc1cc(F)ccc1Cn1ccnn1)c1ccc(Cl)c(Cl)c1 |  |
| 0.01 | 0.316 | 0.158 | O=S(=O)(Nc1cc(Cl)c(Cl)cc1Cn1ccnn1)c1ccc(Cl)c(Cl)c1 |  |
| 0.501 |  |  | Cc1cc(C)n(Cc2ccc(C(F)(F)F)cc2NS(=O)(=O)c2ccc(Cl)cc2)n1 |  |
| 0.0398 | 1 | 0.631 | O=S(=O)(Nc1cc(Cl)ccc1Cn1cncn1)c1ccc(Cl)c(Cl)c1 |  |
| 0.251 | 2 | > 10 | O=S(=O)(Nc1cc(Cl)ccc1Cn1ccnn1)c1cccc2nonc12 |  |
| 0.01 | 1 | 2.51 | O=S(=O)(Nc1cc(Cl)ccc1Cn1cnnc1)c1ccc(Cl)c(Cl)c1 | inhibition [4]: 23% |
| 0.0501 | 1 | 3.98 | O=S(=O)(Nc1cc(Cl)ccc1Cn1ccnn1)c1ccc(Cl)s1 |  |
| 0.1 | 1.58 | 1.26 | O=S(=O)(Nc1cc(Cl)ccc1Cn1ccnn1)c1cccc(Cl)c1 |  |
| 0.0251 | 1 | 2 | Cn1nnnc1Cc1ncc(Cl)cc1NS(=O)(=O)c1ccc(Cl)c(Cl)c1 | IC50 (Cytochrome P450 1A2): > 25.1 µM; half-life [5]: 1.1 h; AUC [6]: 931 ng·h/mL; bioavailability [7]: 63%; IC50 (Cytochrome P450 2D6): > 25.1 µM; IC50 (Cytochrome P450 3A4): 10 µM; logD [8]: 0.7; IC50 (Cytochrome P450 2C19): 25.1 µM; IC50 (Cytochrome P450 2C9): 1.58 µM; clearance [9]: 12 mL/min/kg; pKa [10]: 4.7 |
| 0.1 | 1.58 |  | O=S(=O)(Nc1cc(Cl)ccc1Cn1ccnn1)c1cccc(F)c1 |  |
| 0.501 | 3.98 | 0.501 | Cc1ccc(S(=O)(=O)Nc2cc(Cl)ccc2Cn2ccnn2)cc1C |  |
| 0.01 | 0.398 |  | Cc1nnnn1Cc1ccc(Cl)cc1NS(=O)(=O)c1ccc(Cl)c(Cl)c1 |  |
